From patent publication US8334107B2, “Detection systems utilizing supported lipid bilayers” (priority 2005, dated 2012)

Columns and labels:
[1] = test system: DMPG lipid bilayer on MS-PPE; assay: Disruption of DMPG lipid bilayer on MS-PPE detected by superquenching with AQS, flow cytometry; type: biochemical; conditions: 10 μM AQS; sMLT 3.8 μM, nMLT 1.6 μM
Procedure: Lipid bilayers were disrupted by adding Triton X-100® detergent to the bead suspension to a final concentration of 0.25% (w/v).
Bead suspensions of 2.5×10^5 PPE-coated microspheres in 200 μL PBS were analyzed using a FACScan flow cytometer (Becton-Dickinson, Sunnyvale, Calif.) with excitation at 488 nm. Fluorescence signals were acquired on the FL-1 channel (525 nm) using log amplification and analyzed with the CellQuest software.
(§1) Bead suspensions of 2.5×10^5 DMPG-coated MS-PPE in 200 μL of PBS were analyzed using a FACScan flow cytometer (Becton-Dickinson, Sunnyvale, Calif.) with excitation at 488 nm. Fluorescence signals were acquired on FL-1 channel (525 nm) using log amplification and analyzed with the CellQuest software. Kinetic analysis of disruption of supported lipid bilayer by melittin was performed by acquiring real-time data with continuous mixing of samples (10^6 MS-PPE in 800 μl of PBS) using a magnetic stirrer. The raw data were analyzed using IDL Query software developed by Bruce Edwards (Cancer Center, University of New Mexico, Albuquerque, N. Mex.).
Because an anionic lipid was used to form a lipid bilayer around MS-PPE, it was expected that MLT will disrupt the DMPG lipid bilayer by such a detergent-like action. This was tested by adding 10 μM AQS to DMPG-coated MS-PPE followed by treatment with one of the following: Triton X-100® detergent, synthetic MLT (sMLT), or natural MLT (nMLT) and immediately reading the fluorescence by flow cytometry. […] These histograms resemble the ones reported previously for MS-PPE, without a lipid coating, in absence and in presence of AQS.
The kinetics of disruption of supported lipid bilayer by MLT were monitored by measuring real-time changes in fluorescence intensity by flow cytometry (FIG. 19). Suspensions of 10^6 DMPG-coated MS-PPE in 800 μL of PBS were treated with AQS at a final concentration of 10 μM, then with either sMLT, Triton X-100® detergent, or no treatment. […] Treatment with sMLT in the absence of AQS led to an increase in normalized fluorescence (FIG. 19, trace A). This can be attributed to disruption of the lipid bilayer by sMLT, and is consistent with a reversal of the slight quenching of fluorescence caused by the formation of a DMPG lipid bilayer over MS-PPE. Addition of AQS alone to DMPG-coated MS-PPE (FIG. 19, trace C) led to a 20% reduction in fluorescence as reported earlier. Addition of Triton X-100® detergent to DMPG-coated MS-PPE after the addition of AQS (first dip in trace E, FIG. 19) caused immediate decrease in fluorescence to ˜10% of its original value (second dip in trace E, FIG. 19). In contrast, addition of sMLT, after the addition of AQS, (FIG. 19, trace D) led to a gradual reduction of fluorescence intensity to ˜20% of the original value. Although MLT forms dimers at high concentrations (Dempsey, C. E. Biochim. Biophys. Acta 1990, 1031, 143-161), it is monomeric at the concentrations used in this study. On the other hand, Triton X-100® detergent forms micelles at the concentration used in this study.

[2] = test system: DMPG supported on MS-PPE; assay: Binding curves of MLT to DMPG supported on MS-PPE (superquenching flow cytometric assay); conditions: flow cytometry, 10 μM AQS
Procedure: FIGS. 18A-B show binding curves for MLT-disruption of supported lipid bilayer by natural MLT (nMLT; FIG. 18A), and synthetic MLT (sMLT; FIG. 18B). Fluorescence intensity was normalized to that without MLT as determined by flow cytometry. The error bars represent the standard deviation (SD) of the means of normalized histograms obtained for 3 replicates.
as §1
From FIG. 18, the association constant (corresponding to the reciprocal of the point of half saturation) for nMLT and sMLT with DMPG were 5×10^6 M^−1 and 1.7×10^6 M^−1, respectively. […] Lower concentrations of nMLT, in comparison to sMLT, were required to disrupt the DMPG lipid bilayer. This might be attributed to the fact that nMLT contains some phospholipase A2 (PLA2) as a contaminant. […]

[3] = test system: DMPG bilayer on PPE-coated beads; assay: Microfluidic assay: detection of lipid bilayer disruption by fluorescence superquenching; type: biochemical; conditions: injected as 1:1 mixture with 120 μM AQS
Procedure: The preparation of microcolumns with PPE-coated, silica beads was similar to that of with fluorescein containing beads. A 10 μL aliquot of 120 μM AQS was injected to the column. After a certain period of time, a 10 μL aliquot of 1:1 mixture of 120 μM AQS and 220 μM melittin was injected. During this process, the PPE-coated silica bead segment was irradiated at 488 nm and its fluorescence emission intensity was measured at 520 nm every 10 minutes. This experiment was repeated, while injecting 220 μM melittin first, and then 120 μM AQS.
The feasibility of using superquenching as a method of detecting membrane-toxin interactions in microcolumns was also investigated. The fluorescence intensity of the cationic polyelectrolyte poly(p-phenylene-ethynylene) polymer (PPE) can be super-quenched by the quencher 9,10-anthraquinone-2,6-disulfonic acid (AQS). […] It has been observed in flow cytometric studies that formation of DMPG membranes on PPE-coated beads will quench the PPE fluorescence to some extent. The initial rise in fluorescence intensity was probably due to the unquenching of the PPE, due to the removal of lipid bilayers from PPE-coated beads through melittin interaction, whereas the decrease in fluorescence corresponded to superquenching of PPE by AQS after disruption of DMPG bilayer by melittin. […]

[4] = test system: EPC bilayer on porous silica beads; assay: Suspension study: release of fluorescein dye from lipid bilayer coated porous silica beads; type: biochemical; conditions: all three concentrations 15, 45 and 250 μg/mL
Procedure: Lipid coatings on beads were disrupted using 10% Triton X-100. Each sample in micro-centrifuge tubes contained 5 mg of lipid bilayer coated, fluorescein entrapped beads in 200 μL of Tris buffer. Samples were centrifuged and 100 μL aliquots of supernatant were mixed with either 100 μL of Tris buffer or 100 μL of 10% Triton X-100® detergent in separate centrifuge tubes. The fluorescence intensity of each mixture was immediately (time=0) recorded. Each mixture was mixed with its respective bead sample in centrifuge tube and incubated at 25° C. in the dark. After 30 min, samples were centrifuged and fluorescent intensity of the supernatants was measured. Beads were resuspended in their respective supernatants. Fluorescence intensity was again measured at 90 and 150 min.
Experimental procedures were similar to the Triton X-100® detergent based analysis. For experiments with α-toxin, three different toxin concentrations: 15, 45 and 250 μg/mL were used at 37° C. and 25° C. Beads coated with EPC were used. In the experiments with melittin, 220 μM melittin was used with beads coated with either 100% EPC, 10:90 (molar ratio) mixture of DMPG and EPC or an 80:20 mixture of DMPG and DMPC. All melittin experiments were conducted at 25° C.
Previous suspension studies on disruption of lipid bilayers have been performed with small unilamellar vesicles where disruption of the lipid bilayer membranes was detected by monitoring the unquenching of a highly concentrated, encapsulated dye. In the present work disruption was monitored via release of fluorescein dye from porous beads, by measuring the increase in fluorescence intensity of the supernatant at 520 nm. Beads were first suspended in Tris buffer containing the disruptor. After selected time periods, beads were sedimented by centrifuging and a portion of the supernatant was taken for the measurement. The measured portion was added back to the bead sample to permit continuous monitoring. The scattering effect that was present in vesicle based studies was minimized by measuring only the supernatant after centrifugation of the beads.

[5] = test system: EPC vesicles; conditions: incubation with α-toxin; cited from earlier work
[6] = test system: supported lipid bilayer surrounding a porous bead; assay: Kinetics of disruption of supported lipid bilayer by α-toxin, pH-reactive fluorescein in porous beads, flow cytometry; type: biochemical; conditions: pH outside 11.0, inside 2.6
Source text: FIGS. 4A-B illustrates the effects of alpha-toxin on lipid bilayer integrity. FIG. 4A graphically illustrates dose-dependent release of fluorescent dye from a lipid bilayer coated microbead after introduction of different concentrations of alpha-toxin, a membrane-associated pore-forming protein from Staphylococcus aureus. The normalized fluorescence intensity (at 520 nm) of the supernatant is plotted versus time for EPC-coated, fluorescein filled porous beads when using different concentrations of α-toxin added. 10% Triton was added after 150 min. FIG. 4B illustrates the kinetics of disrupting a supported lipid bilayer by α-toxin as monitored by recording changes in fluorescence intensity every 2 minutes by flow cytometry. The lipid bilayer surrounded a porous bead that contains a pH-reactive molecule (fluorescein), and the pH outside the beads was adjusted to 11.0, whereas inside the beads the pH was 2.6. As illustrated, increasing amounts of α-toxin increases the fluorescence emitted from within the beads.
In another experiment a lipid bilayer surrounding a porous bead that contains a pH-reactive molecule (fluorescein) was exposed to α-toxin. The pH outside the beads was adjusted to 11.0, whereas inside the beads the pH was 2.6. The kinetics of disruption of supported lipid bilayer by α-toxin were monitored by recording changes in fluorescence intensity every 2 minutes by flow cytometry. For the first 8 minutes there was no significant change in fluorescence intensity (FIG. 4B). However, after 8 minutes there was a gradual increase in fluorescence intensity (FIG. 4B) resulting from insertion of α-toxin into the supported lipid bilayer thus forming channels permeable to hydrogen cations and hydroxyl ions, which reduces the difference in the pH outside and inside the microspheres. […] This can be attributed to insertion of many α-toxin channels at this high concentration leading to disruption of the lipid bilayer and immediate equilibration of the pH inside and outside the porous microspheres.

Substance	quenching of the MS-PPE after treatment [1]	association constant (reciprocal of the point of half saturation) with DMPG [2]	change in fluorescence intensity of bead segment [3]	increase in fluorescence intensity after 150 min ([4]; 25° C.)	increase in fluorescence intensity after 150 min ([4]; 37° C.)	dye encapsulated in EPC vesicles released [5]	change in fluorescence intensity ([6]; 45 μg/mL)	concentration at which the increase in fluorescence intensity reached its maximum [6]	time without significant change in fluorescence intensity before gradual increase ([6]; read every 2 minutes)
nMLT: natural melittin from Sigma, contains some phospholipase A2 as a contaminant	comparable to that occurring on addition of Triton X-100	5e+06 M⁻¹	slight rise in fluorescence intensity followed by a significant decrease	–	–	–	–	–	–
α-toxin: membrane active pore-forming protein secreted by Staphylococcus aureus, ~33 kDa	–	–	–	about 3 fold	about 6.5 fold	27%	did not cause a change in fluorescence intensity different from the baseline	15 µg/mL	8 min
